Measurements: patent US20220280607A1, “Treatment of Heart Defects and Conditions in Pediatric Patients” (University of Pittsburgh - Of the Commonwealth System of …, priority 2019, published 2022)

How the values were obtained:
[1] = test system: adult mouse heart after myocardial infarction; experiment: Neonatal propranolol treatment followed by adult baseline analysis and myocardial infarction (LAD ligation) with cardiac MRI, AFOG histology and stereology; assay type: in vivo
Procedure: Mouse myocardial injury model: ICR mice were treated with propranolol (10 μg/g, 2 i.p. injections/day) from P1 to P12. Then, cardiac injury was induced to male mice via performing left anterior descending artery (LAD) ligation at the age of P40 to P60. Briefly, the mice were anesthetized with 4% isoflurane, intubated, and ventilated with a stroke volume of 225 microliters (μl) at 145 breaths/minute. The hearts were exposed by performing thoracotomy and the LAD coronary artery was tied with 8-0 nylon suture. After the chest was […] with 6-0 suture, bupivacaine (8 μg/g) was locally administered through subcutaneous injection. The mice were kept intubated without isoflurane at room temperature until waking up from the anesthesia. Bupivacaine (8 μg/g) was administered by subcutaneous injection in the following 3 days (1 day post injury (dpi) to 3 dpi). The heart function after LAD ligation was measured by cardiac MRI at 1-3 days post injury (dpi, acute injury period) and 10-12 dpi (recovery period), respectively.
Quantification of cardiomyocytes with unbiased stereology: Mouse hearts were washed in cardioplegia solution (PBS, […] potassium chloride (KCl)), weighed, and fixed with 3.7% formaldehyde at room temperature overnight. The hearts were then placed in 30% sucrose at 4° C. for 48 hours. The atria were cut off and the ventricles were embedded in OCT and sectioned on a Leica CM1950 cryostat in cross-sectional orientation (thickness 15 μm), resulting in 75-80 slides/heart with 4 sections each. For random systematic sampling we used a random number generator ranging between […] to determine the first slide and then selected every 17th slide for staining. Myocardial volume and scar were quantified by point count method on AFOG-stained sections. Briefly, tissue sections were stained with Acid fuchsin-orange G (AFOG; Polizzotti et al.) and photomicrographs were taken on a Leica MZ26 dissector microscope (objective lens 10×). Areas of myocardium (red after AFOG staining) and scar (blue after AFOG staining) were quantified using ImageJ (version 1.51s). The image was overlaid with a grid to determine area per point. The distance between selected sections was calculated (17th slide×4 sections/slide×15 μm section thickness). The LV myocardial volume was measured by counting the number of grids on both LV myocardium and the scar region. We used the optical dissector method to determine the volume density of cardiomyocyte nuclei. The optical dissector operates optimally at 3 μm distance between lookup and counting frames. Adult mouse hearts were sectioned with a cryostat set at 15 μm. Slides were stained with α-actinin and Hoechst and imaged with an A1R laser-scanning confocal microscope (×60 oil lens).
Briefly, the immunofluorescence stained sections were imaged using a Nikon A1R confocal microscope. We selected four random spots on the technically-best section from each slide and analyzed 20 random samples from each heart. The total number of positive cardiomyocyte nuclei per heart was counted and the mean per sample volume was calculated. Total number of cardiomyocytes (endowment) was calculated as: Number of cardiomyocytes=Number of cardiomyocyte nuclei/(Mono %+2×Bi %[…]+4×Tetra %).
Adult mouse cardiac MRI: Mice were anesthetized with 4% isoflurane mixed with room air in an induction box for 1 to 3 minutes. The depth of anesthesia was monitored by toe reflex, extension of limbs, and spine positioning. Once an appropriate depth of anesthesia was established, mice were placed on a custom-built mouse holder and the anesthesia was maintained by 1.5 to 2% isoflurane with 100% oxygen via a nose cone. […] The respiration waveform was automatically processed to detect inspiration, expiration, and respiration rate. In-vivo cardiac MRI (CMR) was carried out on a Bruker Biospec 7T/30 system (Bruker Biospin MRI, Billerica, Mass.) with the 35-mm quadrature coil for both transmission and reception.

[2] = test system: cardiomyocytes from infants with ToF/PS; experiment: ToF/PS myocardium tissue (organotypic) culture: binucleated BrdU-labeled cardiomyocytes; assay type: cell-based, human; settings: propranolol 10 μM + dobutamine 10 μM, ToF/PS organotypic cultures, FIG. 14E
Procedure: ToF/PS myocardium tissue culture: Discarded myocardium samples were collected during ToF/PS surgery, cut into ˜1 mm^3 tissue blocks, and cultured in IMDM media containing 10% FBS, recombinant neuregulin 1 (rNRG1, 100 ng/ml), and BrdU (30 μM) for 6 days. Samples were treated with forskolin (10 μM), propranolol (10 μM), dobutamine (10 μM), or a combination of propranolol (10 μM) and dobutamine (10 μM).
Cultured ToF/PS myocardium. Cardiomyocytes were isolated from cultured myocardium with the fixation-digestion method. After denaturing the DNA with 2N HCl and neutralization with 2 Normal (N) sodium hydroxide (NaOH), immunofluorescence antibody labeling was performed in solution. The proportion of binucleated and BrdU-positive was quantified with a Nikon A1R microscope.

With `CC(C)NCC(O)COc1cccc2ccccc12` (stereo not drawn) [propranolol, 1-naphthalen-1-yloxy-3-(propan-2-ylamino)propan-2-ol] the “scar size, determined by histology” value ([1]; 12 dpi, AFOG staining, vs control, FIG. 13K) was “not different”, the “region of myocardium affected by ischemia, visualized by LGE” value ([1]; after MI, vs control, FIG. 13D, 13E) was “not different” and the relative systolic thickening ([1]; after MI, vs control, FIG. 13J) was “higher”. For the same molecule, the “higher cardiomyocyte endowment after MI” value ([1]; determined by stereology, vs control, FIG. 13L) was 30%, the “increased cardiomyocyte endowment in adult hearts at baseline” value ([1]; propranolol 10 μg/g, 2 i.p. injections per day, P1-12, P42, FIG. 13A) was “persisted until adulthood” and the “cardiac function (ejection fraction) of adult hearts at baseline” value ([1]; propranolol P1-12, P60, FIG. 13B) was “did not alter”. For the same molecule, the “thinned region of the LV myocardium after myocardial infarction” value ([1]; recovery phase, vs control, FIG. 13H, 13I) was “significantly smaller”, the MRI-measured ejection fraction ([1]; twelve days after MI (recovery phase), FIG. 13F, 13G) was 42% and the “infarct size by late gadolinium-enhancement vs control” value ([1]; two days after MI (acute phase), FIG. 13D, 13E) was “same”. The “ejection fraction (MRI) vs control” value ([1]; two days after MI (acute phase), FIG. 13F, 13G) was “same”, the “heart weight (heart weight to body weight ratio) after MI” value ([1]; vs control, FIG. 13M) was “not changed” and the “inhibition of the dobutamine-stimulated increase in binucleated cardiomyocytes” value [2] was “completely”.
